Measured values reported in US12285407B2, “Bis-indolylmethane derivatives and uses thereof” (The University of The West Indies, priority 2018, dated 2025).
Read-outs that look alike come from different tables or passages of the source.

Assays:
Klebsiella pneumoniae = assay: Checkerboard synergy (FICI) of antibiotics with SP-BIM; type: cell-based; details: for MIC: 24 h, antibiotic alone, read-out: MIC antibiotic only
Escherichia coli = assay: as above; design: MIC SP-BIM 13 only / MIC in combination: Antibiotic: unit not given beside the values; details: for MIC: 24 h
Bacillus cereus = assay: as above; type: cell-based
Candida albicans = assay: as above; design: MIC SP-BIM 13 only / MIC in combination: Antibiotic / MIC antibiotic only: unit not given beside the values
Enterococcus faecium = assay: as above; type: cell-based; details: Enterococcus faecium, Enterococcus faecium; for MIC: 24 h, antibiotic alone, read-out: MIC antibiotic only
Staphylococcus aureus = assay: as above; type: cell-based; details: Staphylococcus aureus, Staphylococcus aureus; for MIC: 24 h, antibiotic alone, read-out: MIC antibiotic only
Streptococcus pneumoniae [1] = assay: as above; type: cell-based; details: for MIC: 24 h, antibiotic alone, read-out: MIC antibiotic only
[2] = system: Salmonella typhimurium ATCC 14028; assay: Broth microdilution MIC of SP-BIMs; type: cell-based; details: Salmonella enterica, read-out: MIC Salmonella tvpkimurium ATCC 14028
Excerpt: Reference microorganisms used in this study included: Bacillus cereus (American Type Culture Collection (ATCC) No. 14579), Streptococcus pyogenes (ATCC No. 19615), Staphylococcus aureus (ATCC No. 12600), Enterococcus faecium (ATCC No. 19434), Corynebacterium diphtheriae (ATCC No. 27010), Escherichia coli (ATCC No. 35218), Salmonella typhimurium (ATCC No. 14028), Pseudomonas aeruginosa (ATCC No. 27853), Klebsiella pneumoniae (ATCC No. 49472), and Candida albicans (ATCC No. 22972).
Prior to each experiment, cultures were streaked onto clean BHI agar plates and incubated at 35° C. for 24 hours. Colonies of the respective cultures were selected and inoculated in phosphate buffer saline (pH 7.5) to a 0.5 McFarland turbidity standard (equivalent to 10^8 CFU mL^−1). The bacterial suspension was then diluted 1:100 in cation adjusted Mueller Hinton Broth (ca-MHB) (Oxoid Ltd, Basingstoke, Hampshire, England).
Stock solutions (50 mg mL^−1) of the SP-BIM test compounds were prepared in DMSO and stored at 4° C. Working preparations of each compound was made up to 1 mg/mL in sterile deionized water with a final DMSO concentration of 10%.
To assess the antibiotic properties of the library of SP-BIMs, the broth microdilution assay was performed in 96-well microplates according to the Clinical and Laboratory Standards Institute 2014 Guidelines (CLSI 2014). The broth microdilution assay was used to determine the minimum inhibitory concentration (MIC). […] Bacterial cells (˜10^6 CFU mL^−1) were inoculated into cation adjusted-Mueller Hinton broth containing the test compound in a twofold serial dilution ranging between 250 μg mL^−1 and 0.02 μg mL^−1. Plates were incubated at 35° C. for 18 hours after which 50 μL of 5% resazurin solution was added to each well. Resazurin is a blue dye which, upon reduction by living cells, turns to a pink resorufin product. Plates were shaken for 1 hour after the addition of the dye. The MIC was recorded as the well with the lowest concentration of test compound where no color change was observed.

[3] = system: Candida albicans ATCC 22972; assay: Broth microdilution MIC of SP-BIMs; type: cell-based; details: ATCC22972, SP-BIM alone, read-out: MIC Candida albicans ATCC 22972
[4] = system: Enterococcus faecium ATCC 19434; assay: Broth microdilution MIC of SP-BIMs; type: cell-based; details: ATCC19434, SP-BIM alone, read-out: MIC Enterococcus faecium ATCC 19434
[5] = system: Pseudomonas aeruginosa ATCC 27853; assay: Broth microdilution MIC of SP-BIMs; type: cell-based; details: ATCC27853, SP-BIM alone, read-out: MIC Pseudomonas aeruginosa ATCC 27853
[6] = system: Staphylococcus aureus ATCC 12600; assay: Broth microdilution MIC of SP-BIMs; type: cell-based; details: ATCC12600, SP-BIM alone, read-out: MIC Staphylococcus aureus ATCC 12600
[7] = system: Corynebacterium diphtheriae ATCC 27010; assay: Broth microdilution MIC of SP-BIMs; type: cell-based; details: ATCC27010, SP-BIM alone, read-out: MIC Corynebacterium diphtheriae ATCC 27010
[8] = system: Klebsiella pneumoniae ATCC 49472; assay: Broth microdilution MIC of SP-BIMs; type: cell-based; details: ATCC49472, SP-BIM alone, read-out: MIC Klebisella pneumoniae ATCC 49472
[9] = system: Bacillus cereus ATCC 14579; assay: Broth microdilution MIC of SP-BIMs; type: cell-based; details: ATCC14579, SP-BIM alone, read-out: MIC Bacillus cereus ATCC 14579
[10] = system: Streptococcus pyogenes ATCC 19615; assay: Broth microdilution MIC of SP-BIMs; type: cell-based; details: ATCC19615, SP-BIM alone, read-out: MIC Streptococcus pyogenes ATCC 19615
Streptococcus pneumoniae [11] = assay: Adjuvant broth microdilution (antibiotic MIC with SP-BIM at 50 μg/mL); type: cell-based; details: Streptococcus pneumoniae, Streptococcus pneumonia, SP-BIM at 50 μg mL^−1
[12] = system: Escherichia coli ATCC 35218; assay: Broth microdilution MIC of SP-BIMs; type: cell-based; details: ATCC35218, SP-BIM alone, read-out: MIC Escherichia coli ATCC 35218
[13] = SP-BIM 9 in combination with the labelled antibiotic
[14] = SP-BIM 13 in combination with the labelled antibiotic
[15] = antibiotic in combination with SP-BIM 9
[16] = antibiotic in combination with SP-BIM 13
[17] = MIC of the antibiotic in combination with SP-BIM 13
[18] = Streptococcus pneumonia (title: Streptococcus pyogenes), antibiotic + SP-BIM 9
[19] = Streptococcus pneumoniae, antibiotic + SP-BIM 13
[20] = read-out: MIC of Kanamvcin with SP-BIM
[21] = read-out: MIC of Vancomvcin with SP-BIM

## O=C(O)c1cn(C2CC2)c2cc(N3CCNCC3)c(F)cc2c1=O [Ciprofloxacin, ciprofloxacin]
Klebsiella pneumoniae; SP-BIM 9 checkerboard
  MIC: 2 µg/mL
Klebsiella pneumoniae; SP-BIM 13 checkerboard
  MIC: 2 µg/mL
Klebsiella pneumoniae; [13]
  FIC of SP-BIM 9: 0.252
Klebsiella pneumoniae; [14]
  FIC of SP-BIM 13: 0.1
Klebsiella pneumoniae; antibiotic + SP-BIM 9
  Interpretation: Synergy (Synergy: FICI≤0.5)
  Σ FIC: <0.5
Klebsiella pneumoniae; antibiotic + SP-BIM 13
  Interpretation: Synergy (Synergy: FICI≤0.5)
  Σ FIC: <0.4
Klebsiella pneumoniae; [15]
  MIC in combination, Antibiotic: 0.5 µg/mL
Klebsiella pneumoniae; [16]
  MIC in combination, Antibiotic: 0.5 µg/mL
Klebsiella pneumoniae; in combination with SP-BIM 9
  FIC of antibiotic: 0.25
Klebsiella pneumoniae; in combination with SP-BIM 13
  FIC of antibiotic: 0.3
Escherichia coli; read-out: MIC antibiotic only, Escherichia coli, antibiotic alone
  MIC: 2 µg/mL
Escherichia coli; read-out: MIC antibiotic only, Escherichia coli, antibiotic alone, SP-BIM 9 checkerboard
  MIC: 2 µg/mL
Escherichia coli; [17]
  MIC in combination: Antibiotic: 1
Escherichia coli; [13]
  FIC of SP-BIM 9: 0.128
Escherichia coli; [14]
  FIC of SP-BIM 13: 0.1
Escherichia coli; antibiotic + SP-BIM 9
  Interpretation: Synergy (Synergy: FICI≤0.5)
  Σ FIC: <0.4
Escherichia coli; antibiotic + SP-BIM 13
  Interpretation: Additive (Additive: FICI>0.5-1.0)
  Σ FIC: <0.6
Escherichia coli; combination with SP-BIM 13
  FIC of antibiotic: 0.5
Escherichia coli; in combination with SP-BIM 9
  FIC of antibiotic: 0.25
Bacillus cereus; 24 h, antibiotic alone, SP-BIM 9 checkerboard, read-out: MIC antibiotic only
  MIC: 8 µg/mL
Bacillus cereus; SP-BIM 9 concentration in combination with the labelled antibiotic
  MIC in combination, SP-BIM 9: 16 µg/mL
Bacillus cereus; [13]
  FIC of SP-BIM 9: 0.064
Bacillus cereus; [14]
  FIC of SP-BIM 13: 0.0
Bacillus cereus; antibiotic + SP-BIM 9
  Interpretation: Synergy (Synergy: FICI≤0.5)
  Σ FIC: <0.3
Bacillus cereus; antibiotic + SP-BIM 13
  Interpretation: Additive (Additive: FICI>0.5-1.0)
  Σ FIC: 1.0
Bacillus cereus; [15]
  MIC in combination, Antibiotic: 2 µg/mL
Bacillus cereus; in combination with SP-BIM 9
  FIC of antibiotic: 0.25
Bacillus cereus; in combination with SP-BIM 13
  FIC of antibiotic: 1.00
Candida albicans; 24 h, read-out: MIC antibiotic only
  MIC: 63 µg/mL
Candida albicans; [17]
  MIC in combination: Antibiotic: 63
Candida albicans; [14]
  FIC of SP-BIM 13: 1.0
Candida albicans; antibiotic + SP-BIM 13
  Interpretation: Indifferent (Indifferent: FICI>1.0-4.0)
  Σ FIC: <2.0
Candida albicans; combination with SP-BIM 13
  FIC of antibiotic: 1.0
Enterococcus faecium; SP-BIM 9 checkerboard
  MIC: 8 µg/mL
Enterococcus faecium; SP-BIM 13 checkerboard
  MIC: 8 µg/mL
Enterococcus faecium; [14]
  FIC of SP-BIM 13: 0.5
Enterococcus faecium; antibiotic + SP-BIM 13
  Interpretation: Additive (Additive: FICI>0.5-1.0)
  Σ FIC: 0.6
Enterococcus faecium; [16]
  MIC in combination, Antibiotic: 1 µg/mL
Enterococcus faecium; in combination with SP-BIM 13
  FIC of antibiotic: 0.1
Staphylococcus aureus; SP-BIM 9 checkerboard
  MIC: 1 µg/mL
Staphylococcus aureus; SP-BIM 13 checkerboard
  MIC: 1 µg/mL
Staphylococcus aureus; [13]
  FIC of SP-BIM 9: 0.02
Staphylococcus aureus; [14]
  FIC of SP-BIM 13: 0.5
Staphylococcus aureus; antibiotic + SP-BIM 9
  Interpretation: Synergy (Synergy: FICI≤0.5)
  Σ FIC: <0.52
Staphylococcus aureus; antibiotic + SP-BIM 13
  Interpretation: Additive (Additive: FICI>0.5-1.0)
  Σ FIC: 1.0
Staphylococcus aureus; [15]
  MIC in combination, Antibiotic: 0.5 µg/mL
Staphylococcus aureus; [16]
  MIC in combination, Antibiotic: 0.5 µg/mL
Staphylococcus aureus; in combination with SP-BIM 9
  FIC of antibiotic: 0.50
Staphylococcus aureus; in combination with SP-BIM 13
  FIC of antibiotic: 0.5
Streptococcus pneumoniae [1]; Streptococcus pneumonia (title: Streptococcus pyogenes), SP-BIM 9 in combination with the labelled antibiotic
  FIC of SP-BIM 9: 0.26
Streptococcus pneumoniae [1]; [18]
  Interpretation: Synergy (Synergy: FICI≤0.5)
  Σ FIC: <0.27
Streptococcus pneumoniae [1]; Streptococcus pneumonia (title: Streptococcus pyogenes), in combination with SP-BIM 9
  FIC of antibiotic: 0.01
Streptococcus pneumoniae [1]; Streptococcus pneumoniae, Streptococcus pneumonia (title: Streptococcus pyogenes), SP-BIM 9 checkerboard
  MIC: 2 µg/mL
Streptococcus pneumoniae [1]; Streptococcus pneumoniae, Streptococcus pneumoniae, SP-BIM 13 checkerboard
  MIC: 2 µg/mL
Streptococcus pneumoniae [1]; Streptococcus pneumoniae, SP-BIM 13 in combination with the labelled antibiotic
  FIC of SP-BIM 13: 0.5
Streptococcus pneumoniae [1]; [19]
  Interpretation: Additive (Additive: FICI>0.5-1.0)
  Σ FIC: <1.0
Streptococcus pneumoniae [1]; Streptococcus pneumoniae, antibiotic in combination with SP-BIM 13
  MIC in combination, Antibiotic: 1 µg/mL
Streptococcus pneumoniae [1]; Streptococcus pneumoniae, in combination with SP-BIM 13
  FIC of antibiotic: 0.5

## CN(C)c1ccc(C(c2c[nH]c3ccccc23)c2c[nH]c3ccccc23)cc1 [SP-BIM 2, [bis(indoly-3-yl)-4-dimethylaminophenyl]methane]
[2]
  MIC: 250 µg/mL
[3]
  MIC: 250 µg/mL
[4]
  MIC: > 250 µg/mL
[5]
  MIC: 250 µg/mL
[6]
  MIC: > 250 µg/mL
[7]
  MIC: > 250 µg/mL
[8]
  MIC: > 250 µg/mL
[9]
  MIC: > 250 µg/mL
[10]
  MIC: > 250 µg/mL
Streptococcus pneumoniae [11]; [20]
  MIC: 125 µg/mL
Streptococcus pneumoniae [11]; [21]
  MIC: 1 µg/mL
[12]
  MIC: > 250 µg/mL

## CC(C)(C)c1cc(C(c2c[nH]c3ccccc23)c2c[nH]c3ccccc23)c(O)c(C(C)(C)C)c1 [SP-BIM 3, [bis(indol-3-yl)-3,5-di-tert-butyl-2-hydroxyphenyl]methane]
[2]
  MIC: 250 µg/mL
[3]
  MIC: 250 µg/mL
[4]
  MIC: > 250 µg/mL
[5]
  MIC: 250 µg/mL
[6]
  MIC: > 250 µg/mL
[7]
  MIC: > 250 µg/mL
[8]
  MIC: > 250 µg/mL
[9]
  MIC: > 250 µg/mL
[10]
  MIC: > 250 µg/mL
Streptococcus pneumoniae [11]; [20]
  MIC: 125 µg/mL
Streptococcus pneumoniae [11]; [21]
  MIC: 1 µg/mL
[12]
  MIC: > 250 µg/mL

## O=[N+]([O-])c1cccc(C(c2c[nH]c3ccccc23)c2c[nH]c3ccccc23)c1 [SP-BIM 5, [bis(indol-3-yl)-3-nitrophenyl]methane]
[2]
  MIC: 250 µg/mL
[3]
  MIC: 250 µg/mL
[4]
  MIC: > 250 µg/mL
[5]
  MIC: 250 µg/mL
[6]
  MIC: > 250 µg/mL
[7]
  MIC: > 250 µg/mL
[8]
  MIC: > 250 µg/mL
[9]
  MIC: > 250 µg/mL
[10]
  MIC: > 250 µg/mL
Streptococcus pneumoniae [11]; [20]
  MIC: 125 µg/mL
Streptococcus pneumoniae [11]; [21]
  MIC: 1 µg/mL
[12]
  MIC: > 250 µg/mL

## c1cc(C(c2c[nH]c3ccccc23)c2c[nH]c3ccccc23)cc(C(c2c[nH]c3ccccc23)c2c[nH]c3ccccc23)c1 [SP-BIM 7, 1,3-bis[bis(indoly-3-yl)methyl]benzene]
[2]
  MIC: 250 µg/mL
[3]
  MIC: 250 µg/mL
[4]
  MIC: > 250 µg/mL
[5]
  MIC: 250 µg/mL
[6]
  MIC: > 250 µg/mL
[7]
  MIC: > 250 µg/mL
[8]
  MIC: > 250 µg/mL
[9]
  MIC: > 250 µg/mL
[10]
  MIC: > 250 µg/mL
Streptococcus pneumoniae [11]; [20]
  MIC: 125 µg/mL
Streptococcus pneumoniae [11]; [21]
  MIC: 1 µg/mL
[12]
  MIC: > 250 µg/mL
